Reference: US20130204009A1, “PROCESS FOR PREPARING BENZOIC ACID ESTERS” (Daiichi Sankyo Company, Limited, priority 2010, published 2013)

Biological target: T1, GAL4-PPARγ chimeric receptor (ligand-binding domain of human PPARγ) (Homo sapiens, UniProt P37231)
T1 construct: expressed in transfected cells; host or cells: COS-7 (monkey kidney)
Assay: Measurement of PPARγ activation effect/modulator activity (GAL4-PPARγ luciferase reporter assay in COS-7 cells)
Format: cell-based
Settings: for Emax: COS-7, maximum luciferase activity, rosiglitazone positive control = 100%, DMSO control = 0%; for EC50: COS-7 cells transfected with pM-PPARγ and pFR-Luc, concentration giving Emax/2
Method: A test was carried out according to the reporter assay method with reference to a report by Kliewer et al. (Journal of Biological Chemistry, 1995, Vol. 270 (22), p. 12953-12956) as a method for measuring the ability of a compound to activate PPARγ (hereinafter PPARγ activation effect/modulator activity). Commercially available reagents and kits were used according to the attached instructions. The details will be shown below.
The ligand-binding domain of human PPARγ (corresponding to about 300 amino acids at the carboxy end) was bound to the DNA-binding domain of the yeast transcription factor GAL4 (corresponding to 147 amino acids at the amino end) with reference to the report by Kliewer et al. to prepare a gene expressing a GAL4-PPARγ receptor.
The plasmid pM-PPARγ obtained by the above operation includes the nucleotide sequence represented by SEQ ID NO: 4 of the Sequence Listing and encodes an amino acid sequence represented by SEQ ID NO: 5 of the Sequence Listing containing amino acids 1 to 147 of the yeast transcription factor GAL4 at the amino end and containing amino acids 175 to 475 of human PPARγ and a stop codon at the carboxy end. The plasmid is a gene that can express a GAL4-PPARγ chimeric receptor in mammalian cells.
The previously acquired plasmid pM-PPARγ and the plasmid pFR-Luc purchased from Stratagene Cloning Systems, Inc. were dissolved in deionised water at a concentration of 1 mg/mL each.
The monkey kidney-derived cell line COS-7 (American Type Culture Collection CRL-1651) was seeded into a 75 cm^2 culture flask and cultured using Dulbecco's modified Eagle's medium containing 10% fetal bovine serum (hereinafter medium) under the conditions of 37° C. and 5% carbon dioxide gas until an approximately 80% confluent state was obtained.
COS-7 cells were transfected with 4.8 micrograms per flask of the plasmid pM-PPARγ and 19.2 μg per flask of the plasmid pFR-Luc using Lipofectamine 2000 transfection reagent (manufactured by Invitrogen Corporation), and the cells were cultured overnight.
On the following day, the cells were harvested by trypsin treatment, suspended in 75 mL of phenol red-free Dulbecco's modified Eagle's medium containing 10% fetal bovine serum, seeded into a white 96-well plate (manufactured by Costar) using the medium in a volume of 95 μL per well, and cultured overnight.
The test compound was dissolved in dimethyl sulfoxide at a concentration of 4 mM. The solution was serially diluted 3.3-fold with dimethyl sulfoxide to prepare solutions of the compound at concentrations up to 400 nM. Dimethyl sulfoxide was prepared for the control group. Rosiglitazone dissolved in dimethyl sulfoxide at a concentration of 4 mM was prepared for the positive control group. They were diluted 20-fold with the medium, and 5 μL of the dilution was added to the wells in which the cells were grown. The concentrations of the test compound treating the cells ranged from 10 μM to 1 nM. After the addition, the cells were cultured overnight.
On the following day, the medium was removed, and Luc Lite (manufactured by PerkinElmer Inc.) was prepared according to the attached document and added at 50 microliters per well. The plate with cells in the Luc Lite was stirred for about 30 minutes. The amount of luminescence in each well was measured as luciferase activity using Analyst (Molecular Devices) for 0.5 second. A dose-dependent curve was drawn.

T1 sequence (P37231 with tags, fused parts or gaps): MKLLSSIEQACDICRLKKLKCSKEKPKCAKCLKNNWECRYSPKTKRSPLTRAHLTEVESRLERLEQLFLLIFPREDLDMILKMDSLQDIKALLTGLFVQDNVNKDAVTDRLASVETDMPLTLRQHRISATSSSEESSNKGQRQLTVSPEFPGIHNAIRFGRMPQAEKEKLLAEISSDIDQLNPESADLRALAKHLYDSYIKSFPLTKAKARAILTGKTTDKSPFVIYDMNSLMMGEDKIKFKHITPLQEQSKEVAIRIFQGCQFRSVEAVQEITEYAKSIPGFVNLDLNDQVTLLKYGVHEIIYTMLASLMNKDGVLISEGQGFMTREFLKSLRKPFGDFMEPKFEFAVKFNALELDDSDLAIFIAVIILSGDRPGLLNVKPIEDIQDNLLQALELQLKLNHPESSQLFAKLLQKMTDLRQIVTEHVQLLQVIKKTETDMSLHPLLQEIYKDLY

| Structure (SMILES) | Emax | EC50 |
| --- | --- | --- |
| Cc1cc(C)c(Oc2ccc3nc(COc4cccc(C(=O)O)c4)n(C)c3c2)nc1C [Reference Example 15, 3-({1-Methyl-6-[(3,5,6-trimethylpyridin-2-yl)oxy]-1H-benzimidazol-2-yl}methoxy)benzoic acid] | 94% | 120000 pM |
| Cc1cnc(Oc2ccc3nc(COc4cccc(C(=O)O)c4)n(C)c3c2)c(F)c1 [Reference Example 9, 3-({6-[(3-Fluoro-5-methylpyridin-2-yl)oxy]-1-methyl-1H-benzimidazol-2-yl}methoxy)benzoic acid] | 74% | 43000 pM |
| CCc1cnc(Oc2ccc3nc(COc4cccc(C(=O)O)c4)n(C)c3c2)c(C)c1 [Reference Example 11, 3-({6-[(5-Ethyl-3-methylpyridin-2-yl)oxy]-1-methyl-1H-benzimidazol-2-yl}methoxy)benzoic acid] | 82% | 260000 pM |
| CCc1cc(C)cnc1Oc1ccc2nc(COc3cccc(C(=O)O)c3)n(C)c2c1 [Reference Example 12, 3-({6-[(3-Ethyl-5-methylpyridin-2-yl)oxy]-1-methyl-1H-benzimidazol-2-yl}methoxy)benzoic acid] | 83% | 71000 pM |
| Cc1cc(F)cnc1Oc1ccc2nc(COc3cccc(C(=O)O)c3)n(C)c2c1 [Reference Example 8, 3-({6-[(5-Fluoro-3-methylpyridin-2-yl)oxy]-1-methyl-1H-benzimidazol-2-yl}methoxy)benzoic acid] | 100% | 100000 pM |
| COc1c(C)cnc(Oc2ccc3nc(COc4cccc(C(=O)O)c4)n(C)c3c2)c1C [Reference Example 14, 3-({6-[(4-Methoxy-3,5-dimethylpyridin-2-yl)oxy]-1-methyl-1H-benzimidazol-2-yl}methoxy)benzoic acid] | 67% | 69000 pM |
